Tested on: human breast MDA435 tumors
Test: Tumor growth inhibition assay, human breast tumor (MDA435) xenograft in nude mice
Assay type: in vivo, nude mice (CD-1 nu/nu)
Procedure: The in vivo anti-cancer efficacy of Compound (1) was assessed in tumor bearing mice using a tumor growth inhibition assay. Human breast tumor (MDA-435) cells were implanted by injection of a tumor cell suspension subcutaneously in the flank of a nude mouse. Treatment of the tumor with an experimental compound began after the tumor had been established (volume was approximately 100 mm^3). The animal then began a multiple injection schedule where the compound was administered orally. Tumors were measured two times a week. During the course of this assay, animals were monitored daily for signs of toxicity including body weight loss.
A supplemented media was prepared from 50% DMEM/Dulbecco Modified Eagle Medium (High Glucose), 50% RPMI 1640, 10% FBS/Fetal Bovine Serum (Hybridoma Tested; Sterile Filtered), 1% L-Glutamine, 1% Penicillin-Streptomycin, 1% MEM Sodium Pyruvate, 1% MEM Non-Essential Amino Acids. […]
The flask was washed with 10 ml of sterile room temperature phosphate buffered saline (PBS). […] The supernatant was aspirated and the cell pellet was resuspended in 10 ml of supplemented media and the cells were counted. […]
The above procedure for trypsinizing and centrifuging the cells were followed. The supernatant was aspirated and the cell pellet was resuspended in 10 ml of sterile PBS and the cells were counted. […]

Cc1cc(NC(=O)C(=O)c2cc(Cc3ccc(C#N)cc3)n3ccccc23)sn1 [Compound (1), 2-(3-(4-cyanobenzyl)-indolizin-1-yl)-N-(3-methyl-isothiazol-5-yl)-2-oxo-acetamide]
tumor growth inhibition (MDA435 in nude mice, 25 mg/kg and 50 mg/kg orally, 3 times a week for 3 weeks, FIG. 1): significantly inhibits tumor growth | reduction of the volume of tumors (MDA435 tumors in nude mice, administered orally): greater than 50%

— patent US20040214850A1, “1-glyoxylamide indolizines for treating cancer” (Synta Pharmaceuticals Corp., priority 2001, published 2004)
